Data reported in publication PMC12507957 (Drug Delivery and Translational Research, 2025).
Like-named read-outs stand apart in the source and are kept apart here.

Key:
[1] = cited from earlier work
[2] = beagle dogs; cited from earlier work
[3] = Mass balance studies after skin permeation of MTG gels; format: in vitro ADME, porcine; details: pig
Protocol: (§1) The in vitro permeation study was performed in triplicate using Franz diffusion cell apparatus with a diffusion area of ~ 0.8 cm^2 and a receptor volume of ~ 3 mL. The porcine skin was thawed at room temperature and cut into an appropriate size before mounting on the Franz diffusion cells. The receptor compartment was filled with PBS containing 0.02%w/v of sodium azide and a selected antioxidant. The Franz diffusion cells were placed into a water bath to maintain the skin temperature at 32 ± 0.5 °C. […] After 48-h permeation studies, the mass balance studies were performed. The samples were extracted for MTG content overnight before HPLC analysis.
Immediately post-application, any remaining MTG was swabbed from the skin surface with cotton buds and added into an Eppendorf tube. Subsequently, the surface of the skin was washed twice with 500 μL of methanol before adding to the same Eppendorf tube containing the cotton buds. The skin was removed from the dissembled Franz diffusion cell and cut into pieces before placing in another Eppendorf tube containing 1 mL of methanol. All samples were vortexed and analysed using HPLC (Sect. HPLC analysis).
(§2) BHT at the optimised concentration was also added accordingly. The gels were evaluated for their drug content by mixing the gel in methanol for overnight extraction of MTG before HPLC analysis (Sect. HPLC analysis). In vitro drug release studies were carried out with a similar experimental setup as described in Sect. In vitro permeation and mass balance studies but porcine skin was replaced with a 0.45 µm nylon membrane filter and 40 μL of gel was loaded on the membrane at the donor compartment. Subsequent in vitro permeation and mass balance studies were performed as described in Sect. In vitro permeation and mass balance studies by loading 40 μL of the gel on the skin.

[4] = Stability studies of MTG in simple solvent systems with and without BHT; format: physicochemical
Protocol: (§3) Samples were analysed using Shimadzu liquid chromatographic system (Kyoto, Japan) with SPD-20A UV–vis detector set at 254 nm. A reverse phase ZORBAX Eclipse Plus C18 column (Agilent Technologies, 150 × 4.6 mm ID × 3.5 μm) coupled with a C18 guard column (Phenomenex SecurityGuard™, 4 × 3.0 mm ID × 5 μm) was employed as the stationary phase. A gradient elution method with acetonitrile and 0.1%v/v of formic acid as the mobile phase (30:70 to 70:30 (v/v) over 1 min and held until 4 min; then returned to 30:70 (v/v) from 4 to 6 min and held up until 10 min) at a flow rate of 1.2 mL/min was used. The injection volume was set at 100 μL and the total run time was 10 min with a retention time of ~ 4 min. The limits of detection and quantification were 0.47 and 1.43 μg/mL for a lower concentration drug range (0.5–10 μg/mL) and 4.29 and 13.01 μg/mL for a higher concentration drug range (10–175 μg/mL), respectively. The linearity for both calibration curves was excellent (R^2 > 0.999).

[5] = In vitro skin permeation of MTG from gel formulations, with infinite dose model fitting; format: in vitro ADME, porcine; details: for Permeation (cumulative amount of MTG permeated): 48 h
Protocol: as §1
To estimate the permeation parameters (P1 and P2), the in vitro permeation data were fitted to the infinite dose model (Eq. 1) using non-linear least squares. This infinite dose model was obtained by solving the diffusion equation using Laplace transform, which was subsequently numerically inverted using Weeks method and fitted to in Python 3.13.3 (Python Software Foundation, Wilmington, DE, US).1 Q¯s=J·A/s=P1ACd/ss/P2sinhs/P2
Here, Q¯s is the cumulative amount of drug permeated, J is the permeation flux, A is the permeation area, Cd is the initial concentration, h is the membrane thickness and s is the Laplace variable. The apparent partition and apparent diffusion coefficients, P1 and P2, are related to the h and the diffusion (D) and partition (K) coefficients, as defined in Eq. 2 and Eq. 3 [32]. The goodness of fit was measured based on the coefficient of determination (R^2) and root mean square error (RMSE).2 P1=Kh 3 P2=D/h^2
The permeability coefficient (Kp), steady-state flux (Jss) and lag time (tlag) can then be calculated using Eqs. 4, 5, and 6 [33] with the estimated values of P1 and P2 from the curve fitting.4 Kp=P1P2 5 Jss=KpCd 6 tlag=h^2/6D
Other permeation parameters were determined experimentally, where A was 0.7–0.8 cm^2, h was 0.0586 cm, Cd was 50 mg/mL and the volume of drug loaded was 40 µL.
as §2

[6] = 32 °C; cited from earlier work
[7] = Forced degradation studies of MTG; format: physicochemical; details: over 24 h
Protocol: Samples were taken at 6, 12 and 24 h for dissolution and/or dilution before HPLC analysis (Sect. HPLC analysis).
as §3, with “min.” for “min. The limits of detection and quantification were 0.47 and 1.43 μg/mL for a lower concentration drug range (0.5–10 μg/mL) and 4.29 and 13.01 μg/mL for a higher concentration drug range (10–175 μg/mL), respectively. The linearity for both calibration curves was excellent (R^2 > 0.999).”

[8] = Stability of MTG in PBS receptor medium with antioxidants (DTT, ascorbic acid); format: physicochemical; details: 32 °C
Protocol: The drug content was analysed using HPLC (Sect. HPLC analysis) at 24, 48, 72 and 96 h.
as §3

## CC[C@@H]1CN2CCc3c([nH]c4cccc(OC)c34)[C@@H]2C[C@@H]1/C(=C\OC)C(=O)OC [MTG, mitragynine]
[1]; basic environments (pH 8 and 10), 40 °C over 8 h
  MTG loss: ≤ 20%
[1]; pH 4 over 24 h
  MTG loss: ~ 11.2%
[2]
  Oral bioavailability: 69.6%
[3]; 1% MTG gel with DMSO and BHT, read-out: Total percentage (mass balance recovery)
  recovery at 48 h, 1 %: 81.3 ± 24.3%
[3]; 1% MTG gel with PG and BHT, read-out: Total percentage (mass balance recovery)
  recovery at 48 h, 1 %: 85.5 ± 16.1%
[3]; 1% MTG gel with Transcutol and BHT, read-out: Total percentage (mass balance recovery)
  recovery at 48 h, 1 %: 87.7 ± 10.8%
[3]; all gel formulations (DMSO, PG, Transcutol) with BHT, read-out: Total drug recovery (mass balance)
  recovery at 48 h, 1 %: > 80%
[4]; 200 μg/mL in DMSO without BHT, 32 °C, after 96 h
  Percentage recovery of MTG: 67.68 ± 1.22%
[4]; 200 μg/mL in Labrasol with 0.01%w/v BHT, 32 °C, after 96 h
  Percentage recovery of MTG: 46.34 ± 2.49%
[4]; 200 μg/mL in Labrasol without BHT, 32 °C, after 96 h
  Percentage recovery of MTG: 4.39 ± 0.70%
[4]; 200 μg/mL in Lauroglycol without BHT, 32 °C, after 96 h
  Percentage recovery of MTG: 30.84 ± 1.21%
[4]; 200 μg/mL in Maisine without BHT, 32 °C, after 96 h
  Percentage recovery of MTG: 19.65 ± 1.17%
[4]; 200 μg/mL in PG without BHT, 32 °C, after 96 h
  Percentage recovery of MTG: 73.82 ± 1.05%
[4]; 200 μg/mL in Transcutol without BHT, 32 °C, after 96 h
  Percentage recovery of MTG: 40.23 ± 5.46%
[4]; DMSO, PG and Transcutol with at least 0.05%w/v of BHT
  Percentage recovery of MTG: above 80%
[4]; in all solvents (without BHT) after 96 h
  Percentage recovery of MTG: < 80%
[4]; remaining solvents (Transcutol, Lauroglycol, Maisine, Labrasol) without BHT, after 96 h
  Percentage recovery of MTG: < 50%
[5]; 1% MTG gel with DMSO and BHT
  Permeation (cumulative amount of MTG permeated): 4.76 ± 0.79 μg/cm^2
[5]; 1% MTG gel with PG and BHT
  Jss (steady-state flux): 0.95 μg/cm^2/h
  Permeation (cumulative amount of MTG permeated): 4.92 ± 0.44 μg/cm^2
[5]; 1% MTG gel with Transcutol and BHT
  Permeation (cumulative amount of MTG permeated): 3.95 ± 0.81 μg/cm^2
[5]; across all gel formulations
  tlag (lag time): 9 to 14 h
[5]; pig, 1% MTG gel with DMSO and BHT, read-out: Kp (permeability coefficient) (converted)
  Papp at 1 %: 0.00447 ×10⁻⁶ cm/s
[5]; pig, 1% MTG gel with PG and BHT, read-out: Kp (permeability coefficient) (converted)
  Papp at 1 %: 0.00525 ×10⁻⁶ cm/s
[5]; pig, 1% MTG gel with Transcutol and BHT, read-out: Kp (permeability coefficient) (converted)
  Papp at 48 h, 1 %: 0.00376 ×10⁻⁶ cm/s
[6]
  Saturated solubility of MTG in PBS: 77.10 ± 5.17 µg/mL
[7]; oxidative and alkaline conditions
  Degradation of MTG: ~ 95%
[7]; thermal degradation
  Degradation of MTG: ~ 90%
[8]; 50 µg/mL in PBS with DTT (0.01-0.1%w/v), 96 h, lowest recovery
  Percentage recovery of MTG: ~ 81%
[8]; 50 µg/mL in PBS with ascorbic acid (0.01-0.1%w/v, regardless of concentration), 96 h
  Percentage recovery of MTG: > 99%
[8]; 50 µg/mL in PBS without antioxidant, after 96 h
  Percentage recovery of MTG: ~ 96%
